Measurements reported in US7101848B2, “Bicyclic oligopeptides” (Boehringer Ingelheim Pharma GmbH & Co. KG, priority 2002, dated 2006).
Converted amounts (≈) assume the structure as drawn. Where a SMILES comes first, the peptide text is derived from it. Bridges are numbered along the chain shown (N, C = ends).

What was measured:
Solubility in buffer = assay type: physicochemical
Excerpt: and the following solubilities:

[1] = Metabolic stability with rat liver microsomes; assay type: in vitro ADME; settings: Rat Micros; substrate 1 μM, 37° C., up to 45 min
Method: (§1) Incubations with preparations of microsomes and cytosol and with plasma under conditions as described below are suitable to investigate the metabolic stability of test compounds (e.g. oxidative metabolism reactions and hydrolysis by esterases). The metabolic stability of the test compounds of examples 1 and 2 is investigated in liver microsomes and cytosol of humans, dogs and rats and in plasma of humans and rats.
(§2) Incubations of test compounds (final concentration: 1 μM) are performed with liver microsomes and cytosol (0.5 mg protein/ml) in Tris buffer (Tris-(hydroxymethyl)-aminomethane) pH 7.4 (0.1 M) containing magnesium chloride (5 mM) at 37° C. for up to 45 min in a total volume of 100 μl. The reaction is initiated by addition of β-nicotinamide adenine dinucleotide phosphate, reduced form (NADPH, 1 mM) and terminated by addition of acetonitrile. After vortex mixing and centrifugation the supernatants are analyzed.
(§3) The samples are analyzed by on-line solid phase extraction and reversed phase HPLC coupled to electro-spray ionization tandem mass spectrometry. The measurements are performed on a triple quad mass spectrometer Quattro II (Micromass, Manchester, UK). The instrument operates at nominal mass resolution in SIR-mode. The analytes are quantified by detection of their quasimolecular ions [M+2H]^2+ m/z 1019 (Example 1) and m/z 1026 (Example 2).

[2] = Metabolic stability with rat liver cytosol; assay type: in vitro ADME; settings: 37° C., up to 45 min
Method: as §1, §2, §3

Stability in rat plasma = assay type: in vitro ADME; settings: substrate 1 μM, 37° C., up to 45 min
Method: as §1
(§4) Incubations of test substrates (final concentration: 1 μM) are performed with human and rat plasma (heparin) containing 0.1 M Tris buffer pH 7.4. The reaction is initiated by addition of the test compound at 37° C. for up to 45 min and terminated by addition of acetonitrile. After vortex mixing and centrifugation the supernatants are analyzed.
as §3

[3] = Metabolic stability with dog liver microsomes; assay type: in vitro ADME; settings: Dog Micros; substrate 1 μM, 37° C., up to 45 min
Method: as §1, §2, §3

[4] = Metabolic stability with dog liver cytosol; assay type: in vitro ADME; settings: 37° C., up to 45 min
Method: as §1, §2, §3

[5] = Metabolic stability with human liver microsomes; assay type: in vitro ADME; settings: Human Micros; substrate 1 μM, 37° C., up to 45 min
Method: as §1, §2, §3

[6] = Metabolic stability with human liver cytosol; assay type: in vitro ADME; settings: 37° C., up to 45 min
Method: as §1, §2, §3

[7] = Stability in human plasma; assay type: in vitro ADME; settings: plasma (heparin), pH 7.4, substrate 1 μM, 37° C., up to 45 min, read-out: Half-lives (t½)
Method: as §1, §4, §3

[8] = liver cytosol, pH 7.4, substrate 1 μM, read-out: Half-lives (t½)

| Structure (SMILES) | solubility (Solubility in buffer; Buffer pH 3.0) [µg/mL] | solubility (Solubility in buffer; Buffer pH 7.4) [µg/mL] | solubility (Solubility in buffer; Buffer pH 10.0) [µg/mL] | Half-lives (t½) [1] | Half-lives (t½) ([2]; substrate 1 μM) | Half-lives (t½) (Stability in rat plasma) | Half-lives (t½) [3] | Half-lives (t½) ([4]; substrate 1 μM) | Half-lives (t½) [5] | Half-lives (t½) ([6]; substrate 1 μM) | half-life at 1 μM [7] [h] | half-life at 1 μM [2, 8] [h] | half-life at 1 μM [4, 8] [h] | half-life at 1 μM [6, 8] [h] |
| --- | --- | --- | --- | --- | --- | --- | --- | --- | --- | --- | --- | --- | --- | --- |
| CC[C@H](C)[C@@H]1NC(=O)[C@@H]2CC(=O)NCC(=O)N[C@@H](CC(C)C)C(=O)N3CCC[C@H]3C(=O)N[C@@H](Cc3c[nH]c4ccccc34)C(=O)NCC(=O)N[C@@H](CSSC[C@@H](C(=O)O)NC(=O)[C@H](C)NC(=O)[C@H](Cc3c[nH]c4ccccc34)NC(=O)[C@@H]3CCCN3C(=O)[C@H]([C@@H](C)O)NC(=O)[C@H](CC(N)=O)NC(=O)[C@H](Cc3c[nH]c4ccccc34)NC(=O)CNC(=O)[C@@H]3CCCN3C1=O)C(=O)N1CCC[C@H]1C(=O)N[C@@H](CO)C(=O)N2 [Example 1] (GLPWGCPSDIPGWNTPWAC-OH; disulfide 6-19; lactam N-9) | 3 (≈ 1.47 µM) | 120 (≈ 58.9 µM) | 92 (≈ 45.2 µM) | stable | stable | stable | stable | stable | stable | stable | 3.03 | – | – | – |
| CC[C@H](C)[C@@H]1NC(=O)[C@@H]2CC(=O)NCC(=O)N[C@@H](CC(C)C)C(=O)N3CCC[C@H]3C(=O)N[C@@H](Cc3c[nH]c4ccccc34)C(=O)NCC(=O)N[C@@H](CSSC[C@@H](C(=O)OC)NC(=O)[C@H](C)NC(=O)[C@H](Cc3c[nH]c4ccccc34)NC(=O)[C@@H]3CCCN3C(=O)[C@H]([C@@H](C)O)NC(=O)[C@H](CC(N)=O)NC(=O)[C@H](Cc3c[nH]c4ccccc34)NC(=O)CNC(=O)[C@@H]3CCCN3C1=O)C(=O)N1CCC[C@H]1C(=O)N[C@@H](CO)C(=O)N2 [Example 2] (GLPWGCPSDIPGWNTPWAC-OMe; disulfide 6-19; lactam N-9) | 3 (≈ 1.46 µM) | 2 (≈ 0.975 µM) | 4 (≈ 1.95 µM) | stable | – | stable | stable | – | stable | – | 3 | 1.22 | 2.33 | 2.03 |
